# Data from paper PMC7913925, “Design and Evaluation of a Polypeptide That Mimics the Integrin Binding Site for EDA Fibronectin to Block Profibrotic Cell Activity” (International Journal of Molecular Sciences, 2021).
# Bridges are numbered along the chain shown (N, C = ends). Where no end group is shown, it is not given here.
# Columns and labels:
# [1] = target: FN-EDA (peptide sharing sequence with the C-C′ loop of EDA-FN) (Homo sapiens, UniProt P02751); assay: Isothermal calorimetry, AF38Pep with FN-EDA; format: binding; conditions: 25 °C, pH 7
# Experimental: Custom designed peptides were resuspended in sterile-filtered HEPES buffered saline (140 mM NaCl, 1.5 mM Na2HPO4, 50 mM HEPES; pH 7). The larger EDA-FN binding peptide was diluted to 15 µM, degassed and added to the calorimetry chamber well. Three smaller test peptides (fibronectin EDA-peptide, FN-EDA; fibronectin RGD-peptide, FN-RGD and collagen I RGD-peptide, COL-RGD) were diluted to 300 µM, degassed and each was separately loaded into the calorimetry injection needle. The chamber well temperature was kept consistent at 25 °C. Blank buffer was used to replace either the well peptide or the injection needle peptide to account for background heat generation. Isothermal titration calorimetry was performed using a MicroCal iTC200 (Malvern Panalytical, Malvern, UK) and dissociation constant (KD) and association constant (KA) were calculated using the one set of sites model fitting (with number of binding sites assumed to be 1) in MicroCal Origin Software v8.5 (Malvern Panalytical).
# [2] = tested on: mouse NIH/3T3 dermal fibroblast cells, α-SMA mRNA; assay: α-SMA mRNA expression (qRT-PCR) in TGF-β1-treated NIH/3T3; format: cell-based
# Experimental: (§1) HFL1 cells were cultured in Kaighn’s modified Ham’s F-12 (F-12K) medium (Sigma-Aldrich) containing NaHCO3 and HEPES buffered to pH 7. Cells were grown to confluence in T75 culture flasks in the presence of 10% fetal bovine serum (FBS; Gibco, Thermo Fisher Scientific, Waltham, MA, USA). HFL1 cells were subcultured using 0.05% trypsin at a ratio of 1:3. NIH/3T3 cells were cultured in Dulbecco’s Modified Eagle Medium (DMEM; HyClone, Thermo Fisher Scientific) containing 100 U/mL penicillin and 100 μg/mL streptomycin. Cells were grown to confluence in T75 culture flasks in the presence of 10% FBS. NIH/3T3 cells were subcultured using 0.05% trypsin/EDTA at a ratio of 1:3. All cells were maintained at 37 °C and 5% CO2, and growth medium was replenished every 3 days until experimentation. Cells were growth-arrested in serum-free medium for 48 h before experiments, and all experiments were performed under serum-free conditions using cells between passages 3 and 8.
# (§2) Reverse transcription (RT) and real-time quantitative PCR (qRT-PCR) were used to assess ACTA2/Acta2, Col1a1, Col3a1, Fn1, Eda-Fn1, Mmp9, Tgfb1, Ltbp1, Hic5, and Mrtfa mRNA expressions. Custom PCR primers were designed in-house (Table 2) and then synthesized by BGI (Beijing, China). Cells were grown in 6-well culture plates and washed with phosphate buffered saline (PBS) before lysis with TRIzon Reagent (CWBio, Beijing, China) and total RNA purification according to the manufacturer’s protocol. Reverse transcription was carried using the TransScript First-Strand cDNA Synthesis SuperMix kit according to the manufacturer’s protocol (TransGen, Beijing, China), using the random primer method for the initiation of cDNA synthesis. Nuclease-free H2O replaced the RNA sample to serve as a negative control for the reverse transcription reaction. For qRT-PCR, 10 µL 2× TransStart Top Green qPCR SuperMix was added to each well of a 96-well PCR plate containing 0.4 µL forward primer, 0.4 µL reverse primer, […], and nuclease-free water to a total volume of 20 µL. […]
# [3] = tested on: mouse NIH/3T3 dermal fibroblast cells; assay: Cytotoxicity/proliferation assay (CCK-8) NIH/3T3; format: cell-based; conditions: TGF-β1 stimulated NIH/3T3, over 72 h
# Experimental: as §1
# Cells were seeded into 12-well culture plates at a density of 2.5 × 10^4 and when cultures reached 50% confluence, the culture medium was replaced with fresh serum-free F12K or serum-free DMEM/F12 for 48 h (growth arrest). […] Absorbance was measured at 450 nm wavelength using a Bio-Rad optical plate reader.
# [4] = tested on: Mmp9 mRNA in NIH/3T3 fibroblasts; assay: qRT-PCR Mmp9 mRNA; format: cell-based, mouse; conditions: 48 h, TGF-β1 10 ng/mL
# Experimental: as §2, with “µL. The qRT-PCR reaction was completed using a CFX96 Real-Time PCR Detection System (Bio-Rad Laboratories, Hercules, CA, USA). Amplification used the following parameters: 94 °C for 30 s, followed by 40 cycles of 94 °C for 5 s, 55 °C for 15 s, 72 °C for 10 s, and then a dissociation stage (melt-curve).” for “µL.”
# [5] = tested on: Tgfb1 mRNA in NIH/3T3 fibroblasts; assay: qRT-PCR Tgfb1 mRNA; format: cell-based, mouse; conditions: 48 h, TGF-β1 10 ng/mL
# Experimental: as §2, with “µL. The qRT-PCR reaction was completed using a CFX96 Real-Time PCR Detection System (Bio-Rad Laboratories, Hercules, CA, USA). Amplification used the following parameters: 94 °C for 30 s, followed by 40 cycles of 94 °C for 5 s, 55 °C for 15 s, 72 °C for 10 s, and then a dissociation stage (melt-curve).” for “µL.”
# [6] = tested on: Hic5 mRNA in NIH/3T3 fibroblasts; assay: qRT-PCR Hic5 mRNA; format: cell-based, mouse; conditions: 48 h, TGF-β1 10 ng/mL
# Experimental: as §2, with “µL. The qRT-PCR reaction was completed using a CFX96 Real-Time PCR Detection System (Bio-Rad Laboratories, Hercules, CA, USA). Amplification used the following parameters: 94 °C for 30 s, followed by 40 cycles of 94 °C for 5 s, 55 °C for 15 s, 72 °C for 10 s, and then a dissociation stage (melt-curve).” for “µL.”
# [7] = tested on: Col1a1 mRNA; assay: qRT-PCR Col1a1 mRNA; format: cell-based, mouse
# Experimental: as §2, with “µL. The qRT-PCR reaction was completed using a CFX96 Real-Time PCR Detection System (Bio-Rad Laboratories, Hercules, CA, USA). Amplification used the following parameters: 94 °C for 30 s, followed by 40 cycles of 94 °C for 5 s, 55 °C for 15 s, 72 °C for 10 s, and then a dissociation stage (melt-curve).” for “µL.”
# [8] = tested on: Col3a1 mRNA; assay: qRT-PCR Col3a1 mRNA; format: cell-based, mouse
# Experimental: as §2, with “µL. The qRT-PCR reaction was completed using a CFX96 Real-Time PCR Detection System (Bio-Rad Laboratories, Hercules, CA, USA). Amplification used the following parameters: 94 °C for 30 s, followed by 40 cycles of 94 °C for 5 s, 55 °C for 15 s, 72 °C for 10 s, and then a dissociation stage (melt-curve).” for “µL.”
# [9] = tested on: NIH/3T3 cells, total collagen; assay: Hydroxyproline assay, total collagen synthesis; format: cell-based, mouse; conditions: 48 h, TGF-β1 + AF38Pep; % of cells that only received TGF-β1
# Experimental: Approximately 4 × 10^6 of TGF-β1- and/or AF38Pep-treated NIH/3T3 fibroblast cells were harvested and homogenized in 1:1 conditioned medium to HCl (10N), before incubation at 120 °C for 24 h or until complete sample hydrolyzation. Cell-associated and soluble collagen contents were assessed using the Chondrex Hydroxyproline Assay kit (Chondrex, Redmond, WA, USA) according to the manufacturer’s protocol. In brief, 10 µL of sample, standard or blank control solution was added in duplicate to a 96-well clear-bottomed absorbance plate. Next, 100 µL of 1× chloramine-T solution was added to the wells and incubated at room temperature (RT) for 20 min. After incubation, 100 µL 1× DMAB solution was added to the wells and incubated at 60 °C for 30 min, with mild agitation at 5 min intervals. The plate O.D. values were read at 540 nm and sample values were compared to the values of the standard curve. The total collagen content was determined using the following equation:Collagen level (µg/mL) = Hydroxyproline level (µg/mL) × (100/13.5)
sequence,measurement,setting,value
VMPYISTTPAKPCTSENCGNSWYGGFKSKNENKIYFIN (disulfide 13-18 (inferred)) [AF38Pep],ITC interaction (thermogram),[1],there was a detectable interaction between AF38Pep and FN-EDA
same,attenuation of TGF-β1-induced α-SMA mRNA,"[2]; NIH/3T3, 48 h, all concentrations tested (log10 dilution range)",significantly attenuated gene induction at 48 h in all concentrations tested
same,attenuation of TGF-β1-induced α-SMA mRNA,"[2]; NIH/3T3, 72 h, 10 µg/mL",only AF38Pep treatment at a concentration of 10 µg/mL was sufficient to significantly attenuate the α-SMA mRNA upregulation
same,attenuation of TGF-β1-induced α-SMA mRNA,"[2]; NIH/3T3, 72 h, 0.1–1 µg/mL",not able to effectively inhibit the differentiation response over the 72 h duration of treatment
same,cytotoxicity/proliferation,[3],did not interfere with cell proliferation nor incur cell death
same,MMP9 mRNA expression,[4],attenuated
same,TGF-β1 mRNA expression,[5],attenuated
same,HIC5 mRNA expression,[6],attenuated
same,collagen type I mRNA expression,"[7]; 72 h, TGF-β1 + AF38Pep",all inhibited
same,collagen type I mRNA expression,"[7]; by 48 h, vs TGF-β1-only",significant attenuation
same,collagen type III mRNA expression,"[8]; 72 h, TGF-β1 + AF38Pep",all inhibited
same,collagen type III mRNA expression,"[8]; by 48 h, vs TGF-β1-only",significant attenuation
same,total collagen synthesis relative to TGF-β1 only,[9],approximately 60%
